Measured values as given in US8163702B2, “Treatment of melanoma” (SciClone Pharmaceuticals, Inc., priority 2006, dated 2012).
Where “and” joins values, the source holds several entries; their conditions need not be identical. Equal entries are not always repeated.

System: murine B16 melanoma
Assay: Antitumor effect in murine B16 melanoma model, tumor size and tumor weight (Example 2)
Format: in vivo, C57BL/6 mice
Conditions: for Tumor volumes / Tumor measurements L / Tumor measurements W: Day 12; for IR (tumor volume inhibition rate) / Tumor Volume (Mean ± SD) / Tumor volumes (cm^3) on Day 15 / Tumor measurements (cm) on Day 15, L / Tumor measurements (cm) on Day 15, W: Day 15; for IR (inhibition rate of tumor weight) / Tumor Weight (Mean ± SD) / Tumor weights (g) on Day 17: Day 17; for Tumor volumes (cm^3) on Day 15: Length × Width × Width/2; for Tumor volumes (cm^3) on Day 15 / Tumor measurements (cm) on Day 15, L / Tumor measurements (cm) on Day 15, W / Tumor weights (g) on Day 17: individual animals F1-F5, M1-M5
Description: As per aseptic tissue culture procedures, one vial of B16 melanoma cells (supplied by Cell Culture Center of CAMS) was thawed and centrifuged at 1000 rpm, 20-25° C. for 5 minutes. The cell pellets were suspended in 0.1-0.5 mL normal saline (NS) and subcutaneously injected into the right axilla of each mouse (approximately 1×10^6 cells/mouse). When the tumor diameter was 1 cm approximately (measured by vernier caliper), the animals were euthanized with CO2 asphyxiation and the tumor was excised. Tumor cells were suspended in normal saline as previously described and the cell adaptation cycle was repeated once.
On Day 0, 1×10^6 B16 cells in a volume of 0.1 mL normal saline were subcutaneously injected into the right axillary area of the mouse. The day of tumor inoculation was defined as Day 0.
Dosing was initiated on Day 1.
Observations were recorded daily for mortality and moribundity. […] The tumors were excised, separated, and weighed.
Tumor volume was calculated using the following formula: Tumor Volume=Length×Width×Width/2 Tumor volume inhibition rate (IR) was calculated according to the formula: IR(TV)=(TVvehicle−TVdrug treated)/TVvehicle×100% TV is the tumor volume on the day of measurement.
The antitumor effect of the test article was also evaluated by tumor weight. The tumor weight of each mouse was recorded after euthanasia, and the inhibition rate of tumor weight was calculated according to the formula: IR(TW)=(Tumor weightvehicle−Tumor weightdrug treated)/Tumor weightvehicle×100%

[1] = SCV-07 0.01 mg/kg (Group 3), 0.01 mg/kg, female animals
[2] = SCV-07 0.01 mg/kg (Group 3), 0.01 mg/kg, male animals
[3] = SCV-07 0.01 mg/kg (Group 3), 0.01 mg/kg
[4] = SCV-07 0.1 mg/kg (Group 4), 0.1 mg/kg, female animals
[5] = SCV-07 0.1 mg/kg (Group 4), 0.1 mg/kg, male animals
[6] = SCV-07 0.1 mg/kg (Group 4), 0.1 mg/kg
[7] = SCV-07 1.0 mg/kg (Group 5), 1 mg/kg, female animals
[8] = SCV-07 1.0 mg/kg (Group 5), 1 mg/kg, male animals
[9] = SCV-07 1.0 mg/kg (Group 5), 1 mg/kg
[10] = SCV-07 5.0 mg/kg (Group 6), 5 mg/kg, female animals
[11] = SCV-07 5.0 mg/kg (Group 6), 5 mg/kg, male animals
[12] = SCV-07 5.0 mg/kg (Group 6), 5 mg/kg

N[C@H](CCC(=O)N[C@@H](Cc1c[nH]c2ccccc12)C(=O)O)C(=O)O [SCV-07, γ-D-glutamyl-L-tryptophan]
Tumor volumes (mouse M3, SCV-07 0.1 mg/kg sc): 0.67 cm^3
Tumor measurements L (mouse M3, SCV-07 1.0 mg/kg sc): 0.7 cm
Tumor measurements W (mouse M3, SCV-07 1.0 mg/kg sc): 0.7 cm
Tumor volumes (mouse M3, SCV-07 1.0 mg/kg sc): 0.17 cm^3
Tumor measurements L (mouse M3, SCV-07 5.0 mg/kg sc): 0.9 cm
Tumor measurements W (mouse M3, SCV-07 5.0 mg/kg sc): 0.9 cm
Tumor volumes (mouse M3, SCV-07 5.0 mg/kg sc): 0.36 cm^3
Tumor measurements L (mouse M4, SCV-07 0.01 mg/kg sc): 1.0 cm
Tumor measurements W (mouse M4, SCV-07 0.01 mg/kg sc): 1.0 cm
Tumor volumes (mouse M4, SCV-07 0.01 mg/kg sc): 0.50 cm^3
Tumor measurements L (mouse M4, SCV-07 0.1 mg/kg sc): 1.0 cm
Tumor measurements W (mouse M4, SCV-07 0.1 mg/kg sc): 0.9 cm
Tumor volumes (mouse M4, SCV-07 0.1 mg/kg sc): 0.41 cm^3
Tumor measurements L (mouse M4, SCV-07 1.0 mg/kg sc): 1.0 cm
Tumor measurements W (mouse M4, SCV-07 1.0 mg/kg sc): 0.7 cm
Tumor volumes (mouse M4, SCV-07 1.0 mg/kg sc): 0.25 cm^3
Tumor measurements L (mouse M4, SCV-07 5.0 mg/kg sc): 1.1 cm
Tumor measurements W (mouse M4, SCV-07 5.0 mg/kg sc): 1.1 cm
Tumor volumes (mouse M4, SCV-07 5.0 mg/kg sc): 0.67 cm^3
Tumor measurements L (mouse M5, SCV-07 0.01 mg/kg sc): 1.1 cm
Tumor measurements W (mouse M5, SCV-07 0.01 mg/kg sc): 1.0 cm
Tumor volumes (mouse M5, SCV-07 0.01 mg/kg sc): 0.55 cm^3
Tumor measurements L (mouse M5, SCV-07 0.1 mg/kg sc): 0.9 cm
Tumor measurements W (mouse M5, SCV-07 0.1 mg/kg sc): 0.9 cm
Tumor volumes (mouse M5, SCV-07 0.1 mg/kg sc): 0.36 cm^3
Tumor measurements L (mouse M5, SCV-07 1.0 mg/kg sc): 0.8 cm
Tumor measurements W (mouse M5, SCV-07 1.0 mg/kg sc): 0.7 cm
Tumor volumes (mouse M5, SCV-07 1.0 mg/kg sc): 0.20 cm^3
IR (tumor volume inhibition rate) (SCV-07 0.01 mg/kg/day sc): 15.3%
Tumor Volume (Mean ± SD) (SCV-07 0.01 mg/kg/day sc): 1.642 ± 0.549 cm^3
IR (tumor volume inhibition rate) (SCV-07 0.1 mg/kg/day sc): 7.9%
Tumor Volume (Mean ± SD) (SCV-07 0.1 mg/kg/day sc): 1.786 ± 0.524 cm^3
IR (tumor volume inhibition rate) (SCV-07 1.0 mg/kg/day sc): 16.5%
Tumor Volume (Mean ± SD) (SCV-07 1.0 mg/kg/day sc): 1.617 ± 0.274 cm^3
IR (tumor volume inhibition rate) (SCV-07 5.0 mg/kg/day sc): 30.2%
Tumor Volume (Mean ± SD) (SCV-07 5.0 mg/kg/day sc): 1.353 ± 0.591 cm^3
IR (inhibition rate of tumor weight) (SCV-07 0.01 mg/kg/day sc): 27.5%
Tumor Weight (Mean ± SD) (SCV-07 0.01 mg/kg/day sc): 2.77 ± 0.88 g
IR (inhibition rate of tumor weight) (SCV-07 0.1 mg/kg/day sc): 5.8%
Tumor Weight (Mean ± SD) (SCV-07 0.1 mg/kg/day sc): 3.59 ± 0.62 g
IR (inhibition rate of tumor weight) (SCV-07 1.0 mg/kg/day sc): 23.5%
Tumor Weight (Mean ± SD) (SCV-07 1.0 mg/kg/day sc): 2.92 ± 0.55 g
IR (inhibition rate of tumor weight) (SCV-07 5.0 mg/kg/day sc): 30.8%
Tumor Weight (Mean ± SD) (SCV-07 5.0 mg/kg/day sc): 2.64 ± 1.14 g
Tumor volumes (cm^3) on Day 15 [1]: 1.37 cm^3 and 1.69 cm^3 (3×) and 1.47 cm^3
Tumor volumes (cm^3) on Day 15 [2]: 1.57 cm^3 and 1.69 cm^3 and 3.18 cm^3 and 1.47 cm^3 and 2.05 cm^3
Tumor measurements (cm) on Day 15, L [3]: 1.5 cm and 1.8 cm (3×) and 1.4 cm (5×) and 1.3 cm
Tumor measurements (cm) on Day 15, W [3]: 1.5 cm (3×) and 1.4 cm (4×) and 1.3 cm (2×) and 1.8 cm
Tumor weights (g) on Day 17 [1]: 1.55 g and 2.04 g and 2.24 g and 3.71 g and 3.21 g
Tumor weights (g) on Day 17 [2]: 2.77 g and 2.80 g and 4.57 g and 2.29 g and 2.50 g
Tumor volumes (cm^3) on Day 15 [4]: 1.18 cm^3 (2×) and 1.69 cm^3 (2×) and 1.80 cm^3
Tumor volumes (cm^3) on Day 15 [5]: 1.69 cm^3 (2×) and 1.77 cm^3 and 1.44 cm^3 and 2.05 cm^3
Tumor measurements (cm) on Day 15, L [6]: 1.5 cm (6×) and 2.2 cm and 1.6 cm (2×) and 1.4 cm
Tumor measurements (cm) on Day 15, W [6]: 1.4 cm (4×) and 1.7 cm and 1.6 cm and 1.5 cm (4×)
Tumor weights (g) on Day 17 [4]: 2.46 g and 4.08 g and 4.03 g and 3.93 g and 3.52 g
Tumor weights (g) on Day 17 [5]: 3.10 g and 3.73 g and 4.47 g and 2.86 g and 3.74 g
Tumor volumes (cm^3) on Day 15 [7]: 1.10 cm^3 and 1.37 cm^3 and 1.80 cm^3 and 1.35 cm^3 and 1.57 cm^3
Tumor volumes (cm^3) on Day 15 [8]: 1.47 cm^3 (2×) and 2.30 cm^3 and 1.10 cm^3
Tumor measurements (cm) on Day 15, L [9]: 1.5 cm (3×) and 1.7 cm and 1.6 cm (2×) and 2 cm and 1.4 cm (2×) and 2.1 cm
Tumor measurements (cm) on Day 15, W [9]: 1.5 cm (4×) and 1.3 cm (5×) and 1.6 cm
Tumor weights (g) on Day 17 [7]: 2.69 g and 2.67 g and 4.06 g and 2.66 g and 3.25 g
Tumor weights (g) on Day 17 [8]: 3.58 g and 2.89 g and 2.25 g and 2.55 g and 2.58 g
Tumor volumes (cm^3) on Day 15 [10]: 1.91 cm^3 and 2.56 cm^3 and 1.69 cm^3 and 2.03 cm^3 and 1.57 cm^3
Tumor volumes (cm^3) on Day 15 [11]: 1.37 cm^3 and 2.05 cm^3 (2×) and 2.03 cm^3 and 2.14 cm^3
Tumor measurements (cm) on Day 15, L [12]: 1.6 cm (3×) and 1.5 cm (2×) and 1.8 cm and 1.3 cm (2×) and 1.4 cm
Tumor measurements (cm) on Day 15, W [12]: 1.4 cm (4×) and 1.6 cm and 1.3 cm (3×) and 1.5 cm
Tumor weights (g) on Day 17 [10]: 1.94 g and 3.15 g and 2.97 g and 2.80 g and 2.85 g
Tumor weights (g) on Day 17 [11]: 4.30 g and 0.15 g and 2.45 g and 3.78 g and 2.02 g
B16 melanoma tumor growth (SCV-07 0.01, 1.0 and 5.0 mg/kg/day sc for 14 days): significantly reduced
